Assay results taken from US20090131470A1, “PYRAZOLE-SUBSTITUTED BENZIMIDAZOLE DERIVATIVES FOR USE IN THE TREATMENT OF CANCER AND AUTOIMMUNE DISORDERS” (priority 2005, published 2009).

Legend:
Assay type in all cases: biochemical
[1] = target: T1, Akt1 (Homo sapiens, UniProt P31749); test: Akt1 kinase assay (Histone H1 substrate); details: 200 μM ATP, read-out: AKT-1 IC50
T1 construct: purchased Upstate

[2] = target: T2, PKA (Homo sapiens, UniProt P17612); test: PKA kinase assay (Kemptide substrate); details: 100 μM ATP
T2 construct: purchased Upstate

[3] = target: FGFR2 (Homo sapiens, UniProt P21802); test: Kinase selectivity screening (example 14)
[4] = target: FGFR4 (Homo sapiens, UniProt P22455); test: Kinase selectivity screening (example 14)
Chain of FGFR4 (P22455 22-802, species assumed): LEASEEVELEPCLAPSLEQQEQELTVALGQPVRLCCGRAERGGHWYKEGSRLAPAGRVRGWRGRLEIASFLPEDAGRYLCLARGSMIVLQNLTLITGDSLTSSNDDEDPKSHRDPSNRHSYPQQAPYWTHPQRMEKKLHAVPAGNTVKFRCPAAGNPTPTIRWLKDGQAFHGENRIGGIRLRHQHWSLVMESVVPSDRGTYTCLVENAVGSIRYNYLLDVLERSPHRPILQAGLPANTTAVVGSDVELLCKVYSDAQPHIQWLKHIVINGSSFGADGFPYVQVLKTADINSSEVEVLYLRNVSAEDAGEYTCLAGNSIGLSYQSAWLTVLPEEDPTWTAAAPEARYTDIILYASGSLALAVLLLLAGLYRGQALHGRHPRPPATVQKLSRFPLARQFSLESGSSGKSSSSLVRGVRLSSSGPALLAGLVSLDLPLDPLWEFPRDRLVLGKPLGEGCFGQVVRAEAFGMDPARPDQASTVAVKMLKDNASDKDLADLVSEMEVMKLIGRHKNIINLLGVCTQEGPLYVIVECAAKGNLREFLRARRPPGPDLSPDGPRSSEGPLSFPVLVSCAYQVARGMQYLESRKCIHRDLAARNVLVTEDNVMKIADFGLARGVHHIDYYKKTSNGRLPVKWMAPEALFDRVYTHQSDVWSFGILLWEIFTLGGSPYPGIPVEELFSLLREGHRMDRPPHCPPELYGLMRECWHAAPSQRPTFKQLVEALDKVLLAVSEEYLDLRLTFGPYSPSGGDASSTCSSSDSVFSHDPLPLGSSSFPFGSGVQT

[5] = target: IGF-IR (Homo sapiens, UniProt P08069); test: Kinase selectivity screening (example 14)
Chain of IGF-IR (P08069 31-1367): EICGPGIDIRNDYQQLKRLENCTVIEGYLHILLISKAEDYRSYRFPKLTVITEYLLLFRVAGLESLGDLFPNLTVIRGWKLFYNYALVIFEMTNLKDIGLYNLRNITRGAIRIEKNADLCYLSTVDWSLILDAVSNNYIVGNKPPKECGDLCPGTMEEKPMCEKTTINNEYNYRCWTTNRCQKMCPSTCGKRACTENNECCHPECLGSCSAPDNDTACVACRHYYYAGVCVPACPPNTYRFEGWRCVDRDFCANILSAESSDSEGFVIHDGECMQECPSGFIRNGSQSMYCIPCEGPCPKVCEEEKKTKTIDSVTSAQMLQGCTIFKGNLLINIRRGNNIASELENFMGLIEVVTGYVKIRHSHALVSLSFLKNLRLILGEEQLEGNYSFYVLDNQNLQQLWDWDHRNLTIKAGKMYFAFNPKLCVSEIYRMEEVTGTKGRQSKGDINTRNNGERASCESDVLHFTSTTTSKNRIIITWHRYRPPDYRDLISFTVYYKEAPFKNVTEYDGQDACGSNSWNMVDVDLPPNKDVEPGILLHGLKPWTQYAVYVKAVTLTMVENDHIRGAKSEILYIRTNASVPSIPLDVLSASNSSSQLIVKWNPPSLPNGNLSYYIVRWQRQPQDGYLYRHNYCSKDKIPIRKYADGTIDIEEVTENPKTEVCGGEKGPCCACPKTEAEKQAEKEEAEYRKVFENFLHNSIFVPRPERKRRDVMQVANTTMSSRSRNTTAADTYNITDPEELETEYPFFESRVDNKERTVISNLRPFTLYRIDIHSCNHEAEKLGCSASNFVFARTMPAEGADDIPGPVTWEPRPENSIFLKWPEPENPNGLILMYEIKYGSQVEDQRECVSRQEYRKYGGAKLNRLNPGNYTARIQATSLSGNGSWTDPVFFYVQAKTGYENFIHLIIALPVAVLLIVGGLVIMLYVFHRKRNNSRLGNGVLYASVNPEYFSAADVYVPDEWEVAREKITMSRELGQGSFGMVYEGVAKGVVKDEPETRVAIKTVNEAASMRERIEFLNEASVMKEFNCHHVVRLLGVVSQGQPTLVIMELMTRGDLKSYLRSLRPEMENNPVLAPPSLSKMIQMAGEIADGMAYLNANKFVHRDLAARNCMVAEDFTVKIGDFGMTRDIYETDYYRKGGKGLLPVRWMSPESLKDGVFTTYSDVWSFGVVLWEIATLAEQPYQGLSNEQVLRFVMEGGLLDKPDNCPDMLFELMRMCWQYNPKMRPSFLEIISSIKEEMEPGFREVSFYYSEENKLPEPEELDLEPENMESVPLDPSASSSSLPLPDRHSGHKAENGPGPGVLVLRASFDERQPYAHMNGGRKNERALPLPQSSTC

[6] = target: T3, ITK (Homo sapiens, UniProt Q08881); test: Kinase selectivity screening (example 14)
T3 sequence (Q08881 1-620): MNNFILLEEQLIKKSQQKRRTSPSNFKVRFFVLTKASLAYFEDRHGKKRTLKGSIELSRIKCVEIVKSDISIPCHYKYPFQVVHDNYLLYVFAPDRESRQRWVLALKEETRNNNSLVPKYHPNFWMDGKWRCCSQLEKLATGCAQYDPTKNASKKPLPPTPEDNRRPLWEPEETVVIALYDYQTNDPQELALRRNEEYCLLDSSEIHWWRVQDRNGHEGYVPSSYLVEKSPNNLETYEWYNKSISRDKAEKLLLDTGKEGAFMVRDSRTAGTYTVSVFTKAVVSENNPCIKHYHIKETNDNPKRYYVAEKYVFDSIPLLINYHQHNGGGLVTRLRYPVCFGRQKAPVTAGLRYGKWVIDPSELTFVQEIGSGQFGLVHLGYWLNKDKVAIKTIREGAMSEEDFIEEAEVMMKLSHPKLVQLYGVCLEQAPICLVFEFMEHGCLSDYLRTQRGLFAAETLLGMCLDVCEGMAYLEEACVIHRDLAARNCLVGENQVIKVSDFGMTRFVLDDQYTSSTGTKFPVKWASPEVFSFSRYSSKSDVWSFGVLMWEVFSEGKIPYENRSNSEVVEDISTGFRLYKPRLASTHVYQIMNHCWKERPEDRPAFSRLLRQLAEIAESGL

[7] = target: KDR (Homo sapiens, UniProt P35968); test: Kinase selectivity screening (example 14)
Chain of KDR (P35968 20-1356, species assumed): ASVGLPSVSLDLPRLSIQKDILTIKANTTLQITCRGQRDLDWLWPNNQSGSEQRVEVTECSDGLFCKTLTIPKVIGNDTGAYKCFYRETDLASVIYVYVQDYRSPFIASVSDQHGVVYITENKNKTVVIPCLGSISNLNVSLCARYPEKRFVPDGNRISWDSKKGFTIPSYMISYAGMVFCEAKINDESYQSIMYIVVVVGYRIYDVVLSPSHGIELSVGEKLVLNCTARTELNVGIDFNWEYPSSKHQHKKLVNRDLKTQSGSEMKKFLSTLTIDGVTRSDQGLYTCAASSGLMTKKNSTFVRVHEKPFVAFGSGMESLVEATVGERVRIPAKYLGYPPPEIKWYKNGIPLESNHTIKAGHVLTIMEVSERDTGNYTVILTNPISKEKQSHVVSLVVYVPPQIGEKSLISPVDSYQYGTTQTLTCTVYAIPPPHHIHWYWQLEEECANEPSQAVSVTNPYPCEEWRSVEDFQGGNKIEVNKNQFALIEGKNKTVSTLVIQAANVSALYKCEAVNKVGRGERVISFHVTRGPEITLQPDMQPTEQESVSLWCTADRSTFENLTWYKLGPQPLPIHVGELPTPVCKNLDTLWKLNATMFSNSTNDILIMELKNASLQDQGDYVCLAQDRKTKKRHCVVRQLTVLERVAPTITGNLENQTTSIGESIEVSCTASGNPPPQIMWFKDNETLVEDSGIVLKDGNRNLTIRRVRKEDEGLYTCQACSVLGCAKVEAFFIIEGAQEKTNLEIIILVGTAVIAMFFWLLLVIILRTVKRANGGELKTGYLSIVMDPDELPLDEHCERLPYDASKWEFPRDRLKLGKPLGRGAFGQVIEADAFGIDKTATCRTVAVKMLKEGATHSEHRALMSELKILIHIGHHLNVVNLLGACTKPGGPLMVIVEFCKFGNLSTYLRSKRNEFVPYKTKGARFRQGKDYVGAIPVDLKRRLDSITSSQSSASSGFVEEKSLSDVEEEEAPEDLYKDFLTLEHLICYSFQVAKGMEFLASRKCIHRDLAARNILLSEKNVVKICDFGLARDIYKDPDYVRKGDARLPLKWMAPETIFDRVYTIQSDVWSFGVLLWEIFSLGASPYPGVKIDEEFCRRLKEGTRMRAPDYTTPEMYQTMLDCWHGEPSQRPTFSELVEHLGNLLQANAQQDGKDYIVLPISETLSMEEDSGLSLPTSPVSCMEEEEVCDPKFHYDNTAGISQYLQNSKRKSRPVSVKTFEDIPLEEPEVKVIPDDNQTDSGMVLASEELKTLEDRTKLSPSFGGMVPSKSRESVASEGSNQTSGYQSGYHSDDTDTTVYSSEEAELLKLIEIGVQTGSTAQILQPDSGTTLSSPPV

[8] = target: PDGFRa (Homo sapiens, UniProt P16234); test: Kinase selectivity screening (example 14)
Chain of PDGFRa (P16234 24-1089): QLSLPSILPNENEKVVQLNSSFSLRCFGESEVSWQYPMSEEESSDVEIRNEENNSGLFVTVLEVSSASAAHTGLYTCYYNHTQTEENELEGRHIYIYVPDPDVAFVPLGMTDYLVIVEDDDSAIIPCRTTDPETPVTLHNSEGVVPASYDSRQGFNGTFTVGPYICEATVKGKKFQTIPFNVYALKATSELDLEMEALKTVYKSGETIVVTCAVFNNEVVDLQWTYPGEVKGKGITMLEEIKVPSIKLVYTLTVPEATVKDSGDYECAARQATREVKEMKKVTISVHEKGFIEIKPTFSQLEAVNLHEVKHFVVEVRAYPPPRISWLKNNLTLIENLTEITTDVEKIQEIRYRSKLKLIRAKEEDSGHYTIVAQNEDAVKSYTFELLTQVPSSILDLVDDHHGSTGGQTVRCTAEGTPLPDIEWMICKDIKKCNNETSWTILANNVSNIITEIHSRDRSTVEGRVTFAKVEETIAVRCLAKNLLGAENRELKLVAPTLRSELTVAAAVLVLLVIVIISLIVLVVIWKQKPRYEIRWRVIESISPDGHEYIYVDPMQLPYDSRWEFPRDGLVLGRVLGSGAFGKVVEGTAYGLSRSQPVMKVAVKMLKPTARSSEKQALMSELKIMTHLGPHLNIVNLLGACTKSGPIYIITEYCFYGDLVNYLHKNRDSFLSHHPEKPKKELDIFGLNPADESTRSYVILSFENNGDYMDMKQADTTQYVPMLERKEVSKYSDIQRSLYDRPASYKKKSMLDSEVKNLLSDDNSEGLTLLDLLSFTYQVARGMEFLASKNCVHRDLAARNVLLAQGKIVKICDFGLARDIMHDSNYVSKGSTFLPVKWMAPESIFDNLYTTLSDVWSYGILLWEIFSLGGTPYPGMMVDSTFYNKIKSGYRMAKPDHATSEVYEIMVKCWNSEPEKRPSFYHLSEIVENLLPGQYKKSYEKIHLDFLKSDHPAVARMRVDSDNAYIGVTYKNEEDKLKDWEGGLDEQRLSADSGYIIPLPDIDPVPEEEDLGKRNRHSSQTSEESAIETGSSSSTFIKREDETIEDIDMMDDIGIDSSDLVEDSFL

[9] = target: Syk (Homo sapiens, UniProt P43405); test: Kinase selectivity screening (example 14)

T1 sequence (P31749 whole entry, species assumed): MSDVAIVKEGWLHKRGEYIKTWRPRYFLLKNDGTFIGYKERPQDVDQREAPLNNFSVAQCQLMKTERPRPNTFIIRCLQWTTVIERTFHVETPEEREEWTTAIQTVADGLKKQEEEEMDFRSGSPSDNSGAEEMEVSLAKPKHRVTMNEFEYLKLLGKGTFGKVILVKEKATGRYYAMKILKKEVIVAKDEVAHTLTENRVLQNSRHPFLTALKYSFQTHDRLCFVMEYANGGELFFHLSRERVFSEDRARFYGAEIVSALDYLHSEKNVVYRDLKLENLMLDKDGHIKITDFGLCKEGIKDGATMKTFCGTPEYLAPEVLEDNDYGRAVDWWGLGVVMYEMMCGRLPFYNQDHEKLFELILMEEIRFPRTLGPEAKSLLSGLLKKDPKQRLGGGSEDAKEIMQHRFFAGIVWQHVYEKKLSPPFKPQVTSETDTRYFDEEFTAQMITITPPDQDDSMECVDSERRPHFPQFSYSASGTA

Cc1[nH]nc(-c2nc3cc4cn[nH]c4cc3[nH]2)c1C(=O)NC1CCNCC1 [Example 14]
IC50 [1]: 26.8 µM
IC50 [2]: 7.2 µM
selectivity versus FGFR2 [3]: > 20 fold
selectivity versus FGFR4 [4]: > 20 fold
selectivity versus IGF-IR [5]: > 20 fold
selectivity versus ITK [6]: > 20 fold
selectivity versus KDR [7]: > 20 fold
selectivity versus PDGFRa [8]: > 20 fold
selectivity versus Syk [9]: > 20 fold
